# From ChEMBL document CHEMBL1201862, “PubChem BioAssay data set” (2004)
#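 Five concentrations, 48 hours, 96-well plates. GI50 is the concentration that inhibits growth by half.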 Calls of active or inactive are those of the source. Rule as the data show it: active = GI50 up to about 1.1 µM and inactive = higher. *1 amine or outer side, *2 acyl side, *3 side chain or, on linkers, in order; H or OH if unused. Where a SMILES comes first, the peptide text is derived from it. Bridges are numbered along the chain shown (N, C = ends). [ ]: non-standard residue; d: D form. The star is where a group is joined. X56 = CC(C)C(C)C(C(=O)[*:2])N(C)[*:1]; Picolinoyl(3-OH) = O=C(c1ncccc1O)*; NMePhg = CN[CH](C(=O)O)c1ccccc1; Hyp = O=C(O)[CH]1C[CH](O)CN1; Sar = CNCC(=O)O
# Legend:
# Test in all cases: NCI-60 cell line screen, 48 h
# DLD-1 = test system: DLD-1
# DMS-273 = test system: DMS-273
# LXFL 529 = test system: LXFL 529
# M19-MEL = test system: M19-MEL
# RXF 631 = test system: RXF 631
# DMS-114 = test system: DMS-114
# DU-145 = test system: DU-145
# MDA-N = test system: MDA-N
# T47D = test system: T47D
Compound,GI50 (DLD-1),GI50 (DMS-273),GI50 (LXFL 529),GI50 (M19-MEL),GI50 (RXF 631),GI50 (DMS-114),GI50 (DU-145),GI50 (MDA-N),GI50 (T47D)
Cc1ccc(N2C(=O)C(=CN)C(=O)N(c3ccc(C)cc3)C2=O)cc1,46.8 µM (inactive),> 100 µM (inactive),> 100 µM (inactive),> 100 µM (inactive),> 100 µM (inactive),–,–,–,–
COc1ccc2c(c1)[n+]([O-])c(/C(C)=N/NC(N)=S)c(C)[n+]2[O-],57.9 µM (inactive),–,51.6 µM (inactive),86.9 µM (inactive),44.4 µM (inactive),36 µM (inactive),44.2 µM (inactive),51.3 µM (inactive),49.2 µM (inactive)
COc1ccc2[nH]cc(/C=C(/C)c3ccncc3)c2c1,4.52 µM (inactive),1.57 µM (inactive),–,3.72 µM (inactive),–,2.62 µM (inactive),–,–,–
COC1/C=C\C=C(/C)C(=O)NC2=CC(=O)C=C(C2=O)C(OC)C(C)CC(OC)C(OC)C(C)/C=C(/C)C1OC(N)=O (stereo not given),1.59 µM (inactive),12 µM (inactive),–,2.2 µM (inactive),–,1.12 µM (inactive),–,–,–
COc1ccc(C2C3CCCC(C3=O)C(c3ccc(OC)cc3)N2N=O)cc1 (stereo not given),33.9 µM (inactive),23 µM (inactive),–,32.4 µM (inactive),–,23.1 µM (inactive),–,–,–
NNC(=O)/C(NC(=O)c1ccccc1)=C(\N)c1cccc([N+](=O)[O-])c1,> 100 µM (inactive),> 100 µM (inactive),> 100 µM (inactive),> 100 µM (inactive),> 100 µM (inactive),> 100 µM (inactive),–,–,–
Cc1ccc(S(=O)(=O)C2=c3ncccc3=C3C(=O)c4ccccc4C(=O)C32)cc1 (stereo not given),< 0.01 µM (active),26.5 µM (inactive),83.8 µM (inactive),< 0.01 µM (active),–,65 µM (inactive),> 100 µM (inactive),> 100 µM (inactive),68.4 µM (inactive)
O=C1c2ccccc2C(=O)C1(O)c1c[nH]c2ccccc12,> 100 µM (inactive),–,> 100 µM (inactive),> 100 µM (inactive),> 100 µM (inactive),> 100 µM (inactive),–,–,–
Cc1cc(C)nc(NS(=O)(=O)c2ccc(Nc3c4ccccc4nc4c(C(=O)Nc5ccc(S(=O)(=O)Nc6cc(C)on6)cc5)cccc34)cc2)n1,28.1 µM (inactive),23.8 µM (inactive),17.9 µM (inactive),23.4 µM (inactive),–,19.1 µM (inactive),–,–,–
COc1ccccc1/N=N/c1c(-c2ccccc2)nn(C(=O)CC(=O)Nc2ccccc2Cl)c1-c1ccccc1,> 100 µM (inactive),> 100 µM (inactive),> 100 µM (inactive),> 100 µM (inactive),–,> 100 µM (inactive),–,–,–
COc1ccc(C(=O)OCC2OC(n3cnc4c(=S)nc[nH]c43)C(OC(=O)c3ccc(OC)cc3)C2OC(=O)c2ccc(OC)cc2)cc1 (stereo not given),11.6 µM (inactive),15 µM (inactive),> 100 µM (inactive),> 100 µM (inactive),–,5.65 µM (inactive),–,–,–
O=C(/C=C/c1c(O)ccc2ccccc12)c1cccc2ccccc12,> 79.4 µM (inactive),> 100 µM (inactive),> 83.6 µM (inactive),26.1 µM (inactive),–,> 59.7 µM (inactive),–,–,–
NC1=NN(c2ccccc2)C(=O)C1C(=O)C(=O)Nc1ccc(Cl)cc1 (stereo not given),> 100 µM (inactive),> 100 µM (inactive),> 100 µM (inactive),> 100 µM (inactive),> 100 µM (inactive),> 100 µM (inactive),–,–,–
CC(C)c1cccc2sc(NC(=O)C(=O)C(C#N)c3cccc4ccccc34)nc12 (stereo not given),98.6 µM (inactive),90.4 µM (inactive),73.1 µM (inactive),91.4 µM (inactive),> 100 µM (inactive),40.4 µM (inactive),–,–,–
CCCCCCCC(=O)OC[C@@H](C[As](=O)(O)O)OC(=O)CCCCCCC,13.6 µM (inactive),12.1 µM (inactive),11.9 µM (inactive),14.9 µM (inactive),–,10.4 µM (inactive),–,–,–
CCC1CN2CCC3(c4ccccc4)CC(C(=O)OC)=CC1C23 (stereo not given),17.2 µM (inactive),–,15.4 µM (inactive),17.1 µM (inactive),15 µM (inactive),–,–,–,–
CSCC[C@@H]1C(=O)N(C)[C@H](C(C)(C)C)N1C(=O)c1ccccc1,> 100 µM (inactive),> 100 µM (inactive),–,> 100 µM (inactive),–,> 100 µM (inactive),–,–,–
CCCCCCCC/C=C/CCCCCCCC(=O)N(O)C1CC(n2cc(C)c(=O)[nH]c2=O)OC1CO (stereo not given),6.4 µM (inactive),5.07 µM (inactive),10.6 µM (inactive),5.3 µM (inactive),–,4.41 µM (inactive),–,–,–

Compound,GI50 (DLD-1),GI50 (DMS-273),GI50 (LXFL 529),GI50 (M19-MEL),GI50 (RXF 631),GI50 (DMS-114),GI50 (DU-145),GI50 (MDA-N),GI50 (T47D)
CC(C)c1cccc(C(C)C)c1NC(=O)C(=O)C1CCC2=C(Sc3ccccc3N2)C1=O (stereo not given),> 100 µM (inactive),40.5 µM (inactive),44.2 µM (inactive),> 100 µM (inactive),4.18 µM (inactive),52.8 µM (inactive),–,–,–
Cc1ccc(SC(CCC(Sc2ccc(C)cc2)Sc2ccc(C)cc2)Sc2ccc(C)cc2)cc1,> 100 µM (inactive),> 100 µM (inactive),–,> 100 µM (inactive),> 100 µM (inactive),> 100 µM (inactive),–,–,–
CCCSCC(P(=O)(O)O)P(=O)(O)O.NC1CCCCC1,> 100 µM (inactive),> 100 µM (inactive),–,> 100 µM (inactive),–,> 100 µM (inactive),–,–,–
C=CCCC(=O)CC(=O)OCc1ccccc1,> 100 µM (inactive),> 100 µM (inactive),> 100 µM (inactive),> 100 µM (inactive),> 100 µM (inactive),> 100 µM (inactive),–,–,–
CCOC(=O)C(=O)Nc1cc(Cl)ccc1Cl,> 100 µM (inactive),> 100 µM (inactive),> 100 µM (inactive),> 100 µM (inactive),–,> 100 µM (inactive),–,–,–
OCC12C=CC(C1)c1ccccc12 (stereo not given),> 100 µM (inactive),> 100 µM (inactive),> 100 µM (inactive),> 100 µM (inactive),> 100 µM (inactive),> 100 µM (inactive),–,–,–
O=S(O)c1cc(Cl)c(O)c(Cl)c1,> 100 µM (inactive),–,> 100 µM (inactive),> 100 µM (inactive),> 100 µM (inactive),> 100 µM (inactive),–,–,–
CCC1=C(C(C)=O)[C@@H]2CCCCC[C@@H](C(=O)OC)C2C1=O (stereo not given in full),> 100 µM (inactive),> 100 µM (inactive),> 100 µM (inactive),> 100 µM (inactive),–,> 100 µM (inactive),–,–,–
COc1ccc(/C(C=O)=C(\Cl)c2ccc(OC)c(OC)c2)cc1,15.6 µM (inactive),49.2 µM (inactive),> 100 µM (inactive),> 100 µM (inactive),> 100 µM (inactive),81.3 µM (inactive),–,–,–
N#CC(Nc1cccc(C(F)(F)F)c1)c1ccccc1C(F)(F)F (stereo not given),15.9 µM (inactive),8.04 µM (inactive),6.17 µM (inactive),7.23 µM (inactive),–,8.91 µM (inactive),–,–,–
COc1cccc2c1C(=O)c1c(O)c3c(c(O)c1C2=O)C[C@@](O)(C(C)=O)CC3S(=O)(=O)O (stereo not given in full),> 100 µM (inactive),> 100 µM (inactive),> 100 µM (inactive),> 100 µM (inactive),> 100 µM (inactive),> 100 µM (inactive),–,–,–
CCCNC(=O)Nc1c([N+](=O)[O-])cc(C(F)(F)F)cc1[N+](=O)[O-],–,> 100 µM (inactive),55.2 µM (inactive),42.8 µM (inactive),12.7 µM (inactive),–,–,–,–
CCOC(=O)C(CC(C)C)NC(=O)C(Cc1ccc(N(CCCl)CCCl)cc1)NC(C)=O (stereo not given),–,4.47 µM (inactive),12.4 µM (inactive),3.84 µM (inactive),–,0.849 µM (active),5.93 µM (inactive),2.67 µM (inactive),2.17 µM (inactive)
CC1=C[C@]2(O)C(=O)[C@H](C)C[C@H]3[C@@H](CC[C@@](C)(O)/C=C\2C1=O)C3(C)C,17.5 µM (inactive),22.4 µM (inactive),16.8 µM (inactive),18.5 µM (inactive),31.1 µM (inactive),22.6 µM (inactive),–,–,–
CCC1(O)C[C@H]2CN(CCCc3c([nH]c4ccccc34)[C@@](C(=O)OC)(c3cc4c(cc3OC)N(C)C3[C@](O)(C(=O)OC)[C@H](OC(C)=O)[C@]5(CC)C=CCN6CC[C@]43[C@H]65)C2)C1 (stereo not given in full),2.22 µM (inactive),0.406 µM (active),0.581 µM (active),0.902 µM (active),–,–,–,–,–
CC(C)CC1NC(=O)C(NC(=O)c2ncccc2O)C(C)OC(=O)C(c2ccccc2)N(C)C(=O)C(C)NC(=O)C(C(C)C(C)C)N(C)C(=O)CN(C)C(=O)C2CC(O)CN2C1=O (stereo not given) ({Picolinoyl(3-OH)}-TL[Hyp][Sar][X56]A[NMePhg]; ester 1-C; configuration not given here),82.4 µM (inactive),34.8 µM (inactive),–,68.2 µM (inactive),–,> 119 µM (inactive),–,–,–
CC(=O)O[C@]1(C(C)=O)CC[C@H]2[C@@H]3C[C@H](C)C4=CC(=O)C=C[C@]4(C)[C@@]3(F)[C@@H](O)C[C@@]21C [FLUOROMETHOLONE ACETATE],94.6 µM (inactive),41.7 µM (inactive),–,> 100 µM (inactive),–,53.6 µM (inactive),–,–,–
CO[C@@]12[C@H](COC(N)=O)C3=C(C(=O)C(C)=C(N)C3=O)N1C[C@@H]1N[C@@H]12 [MITOMYCIN],2.8 µM (inactive),0.104 µM (active),2.55 µM (inactive),–,–,–,–,–,–
